Molecules are shown by their SMILES.

For data set [1], the target named is Muscarinic (Cholinergic) M4 (Homo sapiens, UniProt P08173). Description: CNS receptor binding assay. The conditions noted are these: [3H] 4-DAMP, Human recombinant (CHO cells), read-out: % Inhibition of control specific binding.
Another data set has as its system Noradrenergic α1. The data set can be described thus: CNS receptor binding assay. The following applies: 10 μM; [3H] prazosin; rat cerebral cortex.
The next data set deals with Oppioid δ2 (Homo sapiens, UniProt P41143). Description: CNS receptor binding assay. The following applies: [3H] DADLE, Human recombinant (CHO cells), read-out: % Inhibition of control specific binding.
Data set [2] concerns the target Muscarinic (Cholinergic) M1 (Homo sapiens, UniProt P11229). The data set can be described thus: CNS receptor binding assay. The conditions noted are these: [3H] pirenzepine, Human recombinant (CHO cells), read-out: % Inhibition of control specific binding.
A further data set deals with Dopaminergic D4.4 (Homo sapiens, UniProt P21917). Description: CNS receptor binding assay. The conditions noted are these: read-out: % Inhibition of control specific binding.
A further data set has as its system Noradrenergic α2. The data set can be described thus: CNS receptor binding assay. The conditions noted are these: 10 μM; [3H] RX 821002; rat cerebral cortex.
Data set [3] in a line: Blood parameters before and after MAP4343 treatment. The class given is in vivo, Wistar rats. The following applies: dependent and non-dependent rats, pre/post treatment, 10 mg/kg sub-cutaneously, FIGS. 4 to 17. Here is the method: Blood samples were obtained before and after completion of the treatment with MAP4343 using retro-orbital sampling. Blood, serum and plasma were collected and analyzed using standard procedures to evaluate blood count panel, blood urea nitrogen, cholesterol, creatinine, T3, T4 and protein electrophoresis.
(§1) Data were analyzed by appropriate mixed factorial ANOVA, followed Newman Keuls post hoc tests

Another data set addresses Dopaminergic D2S (Homo sapiens, UniProt P14416). The data set can be described thus: CNS receptor binding assay. The conditions noted are these: read-out: % Inhibition of control specific binding.
Data set [4] deals with purified tubulin and MAP2 (Homo sapiens, UniProt P11137). Description: Increase in optical density at 345 nm of purified tubulin and MAP2 (microtubule polymerization). The class given is biochemical. The conditions noted are these: 37° C., GTP. The protocol: Activity is measured by the increase in optical density at 345 nm of a mixture of purified tubulin and MAP2, incubated at 37° C. in the presence of GTP.

Data set [5] has as its system alcohol self-administration. Description: Operant alcohol self-administration in ethanol dependent and non-dependent rats. The data set is classed as in vivo, Wistar rats. The protocol: Alcohol self-administration in ethanol dependent and non-dependent animals is a well-known and well-characterized animal model for analysis of alcoholism behaviors (Roberts et al. 1999, 2000; Rimondini et al. 2002; O'Dell et al. 2004; Richardson et al. 2008; Gilpin et al. 2009).
Adult male Wistar rats (Charles River, Raleigh, N.C.), weighing 225-275 g at the beginning of the experiments, were housed in groups of 2-3 per cage in a temperature-controlled (22° C.) vivarium on a 12 h/12 h light/dark cycle (lights on at 8:00 PM) with ad libitum access to food and water. All behavioral tests were conducted during the dark phase of the light/dark cycle. All procedures adhered to the National Institutes of Health Guide for the Care and Use of Laboratory Animals and were approved by the Institutional Animal Care and Use Committee of The Scripps Research Institute.
Self-administration sessions were conducted in standard operant conditioning chambers (Med Associates, St. Albans, Vt.). Animals were first trained to self-administer 10% (w/v) ethanol and water solutions until a stable response was maintained. The rats were subjected to an overnight session in the operant chambers with access to one lever (right lever) that delivered water (FR1). Food was available ad libitum during this training. After 1 day off, the rats were subjected to a 2 h session (FR1) for 1 day and a 1 h session (FR1) the next day, with one lever delivering alcohol (right lever). All of the subsequent sessions lasted 30 min, and two levers were available (left lever: water; right lever: alcohol) until stable levels of intake were reached. Upon completion of this procedure, the animals were allowed to self-administer a 10% (w/v) alcohol solution and water on an FR1 schedule of reinforcement (i.e., each operant response was reinforced with 0.1 ml of the solution).
Once a stable baseline of alcohol self-administration was reached, the rats were made dependent by chronic, intermittent exposure to alcohol vapors. […]
as §1

A further data set deals with Histaminergic H2 (Homo sapiens, UniProt P25021). The data set can be described thus: CNS receptor binding assay. The following applies: read-out: % Inhibition of control specific binding.
The target of the next data set is Serotoninergic 5-HT3 (Homo sapiens, UniProt P46098). Description: CNS receptor binding assay. The conditions noted are these: read-out: % Inhibition of control specific binding.
A further data set addresses Serotoninergic 5-HT5A (Homo sapiens, UniProt P47898). The data set can be described thus: CNS receptor binding assay. The following applies: read-out: % Inhibition of control specific binding.
In a further data set the target is Noradrenergic β1 (Homo sapiens, UniProt P08588). The data set can be described thus: CNS receptor binding assay. The conditions noted are these: read-out: % Inhibition of control specific binding.
The target of the next data set is Serotoninergic 5-HT6 (Homo sapiens, UniProt P50406). Description: CNS receptor binding assay. The following applies: read-out: % Inhibition of control specific binding.
A further data set addresses Cannabinoid CB1 (Homo sapiens, UniProt P21554). The data set can be described thus: CNS receptor binding assay. The following applies: [3H] CP55940, Human recombinant (CHO cells), read-out: % Inhibition of control specific binding.
The target of the next data set is Serotoninergic 5-HT2A (Homo sapiens, UniProt P28223). Description: CNS receptor binding assay. The conditions noted are these: [3H] ketanserin, Human recombinant (HEK-293 cells), read-out: % Inhibition of control specific binding.
Sequence of Serotoninergic 5-HT2A (P28223 whole entry): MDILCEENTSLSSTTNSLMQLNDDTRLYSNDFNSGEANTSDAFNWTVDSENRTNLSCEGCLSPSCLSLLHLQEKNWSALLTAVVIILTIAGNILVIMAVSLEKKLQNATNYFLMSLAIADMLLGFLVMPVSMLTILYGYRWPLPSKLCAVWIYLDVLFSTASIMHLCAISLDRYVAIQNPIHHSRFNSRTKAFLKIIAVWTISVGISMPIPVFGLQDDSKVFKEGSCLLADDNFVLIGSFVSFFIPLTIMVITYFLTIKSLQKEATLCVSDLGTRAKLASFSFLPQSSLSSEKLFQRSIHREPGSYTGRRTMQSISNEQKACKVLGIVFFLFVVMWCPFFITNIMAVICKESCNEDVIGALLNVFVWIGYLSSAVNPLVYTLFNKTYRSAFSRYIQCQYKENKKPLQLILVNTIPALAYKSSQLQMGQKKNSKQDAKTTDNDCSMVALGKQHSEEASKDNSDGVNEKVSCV

Sequence of Dopaminergic D4.4 (P21917 whole entry): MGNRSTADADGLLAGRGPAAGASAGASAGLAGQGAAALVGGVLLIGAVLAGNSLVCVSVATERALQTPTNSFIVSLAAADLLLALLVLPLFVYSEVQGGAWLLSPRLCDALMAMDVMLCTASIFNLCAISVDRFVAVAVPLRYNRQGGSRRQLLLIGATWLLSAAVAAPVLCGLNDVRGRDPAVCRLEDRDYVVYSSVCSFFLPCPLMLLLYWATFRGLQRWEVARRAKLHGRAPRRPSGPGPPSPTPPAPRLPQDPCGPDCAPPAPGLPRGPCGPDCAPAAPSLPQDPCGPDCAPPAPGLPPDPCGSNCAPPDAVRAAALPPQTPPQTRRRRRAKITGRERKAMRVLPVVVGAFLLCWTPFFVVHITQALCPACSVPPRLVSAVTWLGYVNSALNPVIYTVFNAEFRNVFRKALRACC
Sequence of Muscarinic (Cholinergic) M4 (P08173 whole entry): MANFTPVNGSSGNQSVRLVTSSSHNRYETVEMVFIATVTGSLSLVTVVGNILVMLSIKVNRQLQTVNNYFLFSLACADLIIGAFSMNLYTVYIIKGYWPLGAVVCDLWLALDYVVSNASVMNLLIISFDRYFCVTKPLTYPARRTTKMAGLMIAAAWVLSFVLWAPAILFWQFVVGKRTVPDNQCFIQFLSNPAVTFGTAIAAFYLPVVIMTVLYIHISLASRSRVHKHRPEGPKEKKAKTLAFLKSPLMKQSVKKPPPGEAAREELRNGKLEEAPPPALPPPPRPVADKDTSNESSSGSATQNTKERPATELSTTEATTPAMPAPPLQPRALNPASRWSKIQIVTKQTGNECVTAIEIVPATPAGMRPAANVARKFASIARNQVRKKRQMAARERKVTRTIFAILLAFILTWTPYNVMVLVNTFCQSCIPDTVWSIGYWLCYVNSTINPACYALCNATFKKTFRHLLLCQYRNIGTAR
Sequence of purified tubulin and MAP2 (P11137 whole entry): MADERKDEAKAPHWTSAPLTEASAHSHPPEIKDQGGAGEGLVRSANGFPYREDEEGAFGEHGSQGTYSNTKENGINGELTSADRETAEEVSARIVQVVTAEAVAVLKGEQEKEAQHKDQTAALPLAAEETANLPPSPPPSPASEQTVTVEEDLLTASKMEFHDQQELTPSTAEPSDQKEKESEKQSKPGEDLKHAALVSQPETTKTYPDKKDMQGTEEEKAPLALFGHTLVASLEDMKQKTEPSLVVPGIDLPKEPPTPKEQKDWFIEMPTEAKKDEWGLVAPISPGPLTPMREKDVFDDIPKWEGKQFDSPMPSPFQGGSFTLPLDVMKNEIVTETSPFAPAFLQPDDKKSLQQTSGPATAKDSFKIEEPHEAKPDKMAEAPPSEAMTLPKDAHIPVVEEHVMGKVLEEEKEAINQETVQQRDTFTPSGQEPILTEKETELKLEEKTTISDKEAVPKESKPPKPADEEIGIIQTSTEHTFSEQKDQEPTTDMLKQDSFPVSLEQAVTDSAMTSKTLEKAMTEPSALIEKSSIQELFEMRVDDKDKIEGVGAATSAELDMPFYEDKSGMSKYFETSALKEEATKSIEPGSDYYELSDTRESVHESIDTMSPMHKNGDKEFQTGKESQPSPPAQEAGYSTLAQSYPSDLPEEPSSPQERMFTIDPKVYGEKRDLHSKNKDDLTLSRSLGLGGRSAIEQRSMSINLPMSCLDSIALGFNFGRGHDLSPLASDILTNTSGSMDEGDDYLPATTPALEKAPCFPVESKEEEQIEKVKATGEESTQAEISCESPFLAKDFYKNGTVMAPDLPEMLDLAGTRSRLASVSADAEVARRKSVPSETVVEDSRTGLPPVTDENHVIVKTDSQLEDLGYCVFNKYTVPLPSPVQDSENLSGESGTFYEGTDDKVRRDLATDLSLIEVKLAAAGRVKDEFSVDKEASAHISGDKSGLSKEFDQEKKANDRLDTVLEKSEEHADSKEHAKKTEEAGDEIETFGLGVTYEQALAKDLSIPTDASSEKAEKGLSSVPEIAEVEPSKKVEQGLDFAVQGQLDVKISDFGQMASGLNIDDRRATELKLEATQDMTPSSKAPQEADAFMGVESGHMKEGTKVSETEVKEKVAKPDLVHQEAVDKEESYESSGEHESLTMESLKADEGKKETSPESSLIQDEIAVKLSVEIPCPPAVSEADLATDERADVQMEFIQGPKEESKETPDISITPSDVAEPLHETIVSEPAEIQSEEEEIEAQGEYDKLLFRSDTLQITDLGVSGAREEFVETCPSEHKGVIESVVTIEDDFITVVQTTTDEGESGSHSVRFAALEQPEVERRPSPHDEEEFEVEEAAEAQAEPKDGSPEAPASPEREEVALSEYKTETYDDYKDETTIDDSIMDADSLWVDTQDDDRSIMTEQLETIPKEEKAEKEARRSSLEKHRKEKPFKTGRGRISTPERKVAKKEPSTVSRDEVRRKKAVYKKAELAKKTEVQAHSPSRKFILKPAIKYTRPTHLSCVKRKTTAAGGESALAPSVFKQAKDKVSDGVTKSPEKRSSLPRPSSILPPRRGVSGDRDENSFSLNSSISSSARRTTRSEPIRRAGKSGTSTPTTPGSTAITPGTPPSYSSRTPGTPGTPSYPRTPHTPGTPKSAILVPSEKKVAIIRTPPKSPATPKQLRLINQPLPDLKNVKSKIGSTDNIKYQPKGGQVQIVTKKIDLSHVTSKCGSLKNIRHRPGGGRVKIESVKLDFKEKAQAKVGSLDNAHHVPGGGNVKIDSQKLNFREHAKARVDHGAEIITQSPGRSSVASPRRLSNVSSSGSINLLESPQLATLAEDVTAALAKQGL
Sequence of Cannabinoid CB1 (P21554 whole entry): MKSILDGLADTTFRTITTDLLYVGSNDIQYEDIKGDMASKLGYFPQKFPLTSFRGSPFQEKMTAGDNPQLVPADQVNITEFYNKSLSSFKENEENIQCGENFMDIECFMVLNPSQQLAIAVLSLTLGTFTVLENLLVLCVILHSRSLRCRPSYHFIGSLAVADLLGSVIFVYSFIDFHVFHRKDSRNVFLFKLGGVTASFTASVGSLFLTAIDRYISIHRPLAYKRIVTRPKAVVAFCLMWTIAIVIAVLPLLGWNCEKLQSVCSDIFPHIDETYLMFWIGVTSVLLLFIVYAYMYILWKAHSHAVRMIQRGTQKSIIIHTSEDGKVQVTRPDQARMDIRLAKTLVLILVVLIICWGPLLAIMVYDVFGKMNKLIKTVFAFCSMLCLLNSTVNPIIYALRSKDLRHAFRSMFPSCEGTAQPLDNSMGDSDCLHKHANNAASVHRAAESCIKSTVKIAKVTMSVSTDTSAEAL
Sequence of Muscarinic (Cholinergic) M1 (P11229 whole entry): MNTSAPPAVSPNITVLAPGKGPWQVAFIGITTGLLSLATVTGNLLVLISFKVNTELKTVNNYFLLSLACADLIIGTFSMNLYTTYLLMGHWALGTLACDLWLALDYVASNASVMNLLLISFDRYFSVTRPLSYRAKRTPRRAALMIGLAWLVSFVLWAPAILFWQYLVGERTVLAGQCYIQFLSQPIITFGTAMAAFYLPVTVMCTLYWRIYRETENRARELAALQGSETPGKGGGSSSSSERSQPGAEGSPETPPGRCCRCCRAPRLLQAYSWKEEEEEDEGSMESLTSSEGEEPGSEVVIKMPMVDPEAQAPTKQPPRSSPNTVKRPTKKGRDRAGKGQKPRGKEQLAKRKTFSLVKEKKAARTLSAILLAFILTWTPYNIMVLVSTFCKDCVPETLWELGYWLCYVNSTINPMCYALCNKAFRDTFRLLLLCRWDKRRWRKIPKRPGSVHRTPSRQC
Sequence of Histaminergic H2 (P25021 whole entry): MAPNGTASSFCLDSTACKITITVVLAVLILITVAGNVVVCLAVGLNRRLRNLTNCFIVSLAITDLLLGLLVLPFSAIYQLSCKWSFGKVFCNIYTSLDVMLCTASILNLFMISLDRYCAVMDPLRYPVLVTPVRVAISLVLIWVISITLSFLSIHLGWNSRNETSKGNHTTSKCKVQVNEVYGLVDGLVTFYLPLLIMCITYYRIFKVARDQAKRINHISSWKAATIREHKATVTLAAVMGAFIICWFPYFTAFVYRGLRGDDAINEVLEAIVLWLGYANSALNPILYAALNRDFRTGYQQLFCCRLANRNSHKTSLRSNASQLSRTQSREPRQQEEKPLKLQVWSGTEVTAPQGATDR
Sequence of Serotoninergic 5-HT5A (P47898 whole entry): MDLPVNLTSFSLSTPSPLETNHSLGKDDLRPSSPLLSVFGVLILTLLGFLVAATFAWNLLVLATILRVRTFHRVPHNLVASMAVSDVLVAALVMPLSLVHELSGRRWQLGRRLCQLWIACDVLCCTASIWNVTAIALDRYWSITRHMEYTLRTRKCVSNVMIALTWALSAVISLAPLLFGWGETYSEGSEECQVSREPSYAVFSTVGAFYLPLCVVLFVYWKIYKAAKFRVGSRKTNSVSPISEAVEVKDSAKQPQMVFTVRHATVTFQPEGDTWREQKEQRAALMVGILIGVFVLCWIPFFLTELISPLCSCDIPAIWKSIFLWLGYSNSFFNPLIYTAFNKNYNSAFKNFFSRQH

Turning to `CO[C@H]1CC[C@@]2(C)C(=CC[C@H]3[C@@H]4CC[C@H](C(C)=O)[C@@]4(C)CC[C@@H]32)C1` [MAP4343, 3β-methoxy-pregna-5-ene-20-one], the inhibition at 10 µM was 20% in data set [1]; -3% at Oppioid δ2; -3% in data set [2]; 6% at Dopaminergic D4.4; 6% at Dopaminergic D2S; -21% at Histaminergic H2. Besides, the inhibition at 10 µM at Serotoninergic 5-HT3 is 10%; at Serotoninergic 5-HT5A, -5%; on Noradrenergic β1, 1%; on Serotoninergic 5-HT6, 12%; at Cannabinoid CB1, 12%; at Serotoninergic 5-HT2A it was 1%. Moreover, the “% Inhibition of control specific binding” value amounted to 4% with Noradrenergic α1 and 7% in the data set on Noradrenergic α2. In [3], the “effect on blood parameters (blood count panel, blood urea nitrogen, cholesterol, creatinine, T3, T4, protein electrophoresis)” value is given as “no significant effects of dependence or treatment on any of the blood parameters investigated”. Further, the “Activity (percent of PREG)” value in [4] was 100% of PREG. For the same molecule, in data set [5] (dependent (vapor) rats, 10 mg/kg sub-cutaneously in sesame oil 24 hours before each test session, p<0.05 from test session 8), the “operant responding for alcohol (alcohol reinforced responses)” value was “significantly reduce operant responding for alcohol selectively in the dependent animals”. In addition, the “time of treatment until efficacy was apparent” value in [5] (dependent rats, 10 mg/kg sub-cutaneously) was roughly 10 days. In addition, the “reduction of excessive alcohol drinking” value in data set [5] (non-dependent (air) rats, 10 mg/kg sub-cutaneously 24 hours before each test session) is listed as “not in non-dependent rats”.

The inhibition is the drop in the measured response relative to a control, in per cent.

These data come from patent US20210322443A1 (MAPREG, priority 2015, published 2021).
